Test results: US5274098A, “Amidinophenylalanine derivatives, process for their preparation, their use and compositions containing them” (Behringwerke Aktiengesellschaft, priority 1991, dated 1993)

Columns and labels:
[1] = tested on: thrombin; details: cited from earlier work
[2] = target: T1, human thrombin (Homo sapiens, UniProt P00734); test: IC50 value of the thrombin inhibition (Chromozym TH, pNA release at 405 nm); type: biochemical; details: 0.1M tris-HCl/0.15 M NaCl pH 8.2, 1 h preincubation, substrate Chromozym TH 5×10^-5 M
T1 construct: human thrombin
Protocol: Determination of the IC50 value of the thrombin inhibition:
The compounds were incubated with human thrombin in 0.1M tris-HCl buffer/0.15 M NaCl pH 8.2 in increasing concentrations.

[3] = target: T1, human thrombin; test: KI value for thrombin (Lineweaver and Burk, Chromozym TH); type: biochemical; details: inhibitor conc. approx. IC50, Chromozym TH 0.7-45×10^-5 mol/l, read-out: Thrombin inhibition KI
Protocol: Determination of the KI value for thrombin:
The KI values for the compounds investigated were determined using the abovementioned thrombin solution. To do this, thrombin was incubated with a concentration of inhibitor which approximately corresponded to the IC50 value determined in the abovementioned test.

[4] = tested on: thrombin; test: Activity with respect to inhibition of thrombin / antithrombotic activity, general statements; type: biochemical; details: relative to the glycine compound
Description: The inhibitors according to the invention are examined according to various criteria to assess their activity, preferably these are the determination of the Ki value, the IC50 value or the partial thromboplastin time (PTT) in vivo and in vitro.

Row | IC50 [2] | Ki [3] | Structure (SMILES) | type of thrombin inhibition (prior art, in words) [1] | exceeds the activity of the glycine compound by a factor [4]
1 |  |  | CC1CNc2c(cccc2S(=O)(=O)N[C@@H](CCCNC(=N)N)C(=O)N2CC[C@@H](C)C[C@@H]2C(=O)O)C1 (stereo partly shown) [MD 805, monohydrate] | competitive specific thrombin inhibitor | 
2 | 1.3 nM | 2.6 nM | N=C(N)c1ccc(C[C@@H](NC(=O)NNS(=O)(=O)c2ccc3ccccc3c2)C(=O)N2CCCCC2)cc1 [Nas--AGly--Aph--Pip, Beta-naphthylsulfonyl-azaglycyl-D-p-amidinophenylalanylpiperidide] |  | 5
3 |  | 0.092 nM | Cc1c(C)c(S(=O)(=O)NNC(=O)N[C@H](Cc2ccc(C(=N)N)cc2)C(=O)N2CCCCC2)c(C)c2c1OC(C)(C)CC2 [Pmc--AGly--Aph--Pip, Pmc-Azaglycyl-D-p-amidinophenylalanylpiperidide] |  | 
4 | 1.4 nM | 1.3 nM | Cc1c(C)c(S(=O)(=O)NCC(=O)NC(Cc2ccc(C(=N)N)cc2)C(=O)N2CCCCC2)c(C)c2c1OC(C)(C)CC2 (stereo not shown) [Pmc--Gly--Aph--Pip, reference compound] |  | 
